Experimental data as given in paper PMC3602015 (PLoS ONE, 2013).

How the values were obtained:
[1] = biological target: T1, human wild-type P-gp (ABCB1 1236C-2677G-3435C) (Homo sapiens, UniProt P08183, S893A)
Description: (§1) For efflux assays, 1×10^5 cells were seeded on 96-well plates and cultured for 24 hours. […] After washed with warm PBS, cells were allowed to efflux rhodamine123 for 10 min at 37°C in the incubator. Samples (150 µl) were collected and transferred to 96-well black plates. Rhodamine123 concentrations were measured using a set of standards (from 62.5 nM to 8 µM) in HBSS analyzed by the SpectraMax Gemini XS microplate spectrofluorometer (Molecular Devices Co., Sunnyvale, CA, USA) with the excitation set at 485 nm and the emission set at 535 nm. The measured rhodamine123 concentrations were normalized to the total protein content in the cells. Total protein concentrations were measured by a microplate assay protocol (Dc protein assay reagent, Bio-Rad, Hercules, CA, USA), and bovine serum albumin was used as the standard. Each experiment was repeated at least three times across cell passages to ensure stability of transfection and consistency and reproducibility of the experiments.
(§2) For kinetic studies, kinetic parameters were estimated by nonlinear regression using Scientist v2.01 (MicroMath Scientific Software, Salt Lake City, UT, U.S.A.) according to the following equation: [drawing 6] Where V denoted the efflux rate; Vmax, the maximal efflux rate; Km, the Michaelis-Menten constant and C is the substrate concentration.

[2] = biological target: T1, human wild-type P-gp (ABCB1 1236C-2677G-3435C); experiment: in vitro
Description: as §1, §2

[3] = biological target: T2, human P-gp with 1236T-2677T-3435T genotype (Homo sapiens, UniProt P08183)
Description: as §1, §2

[4] = biological target: T2, human P-gp with 1236T-2677T-3435T genotype; experiment: in vitro
Description: as §1, §2

[5] = biological target: T3, human P-gp with 1236T-2677A-3435T genotype (Homo sapiens, UniProt P08183, S893T); experiment: in vitro
T3 sequence (P08183 whole entry S893T): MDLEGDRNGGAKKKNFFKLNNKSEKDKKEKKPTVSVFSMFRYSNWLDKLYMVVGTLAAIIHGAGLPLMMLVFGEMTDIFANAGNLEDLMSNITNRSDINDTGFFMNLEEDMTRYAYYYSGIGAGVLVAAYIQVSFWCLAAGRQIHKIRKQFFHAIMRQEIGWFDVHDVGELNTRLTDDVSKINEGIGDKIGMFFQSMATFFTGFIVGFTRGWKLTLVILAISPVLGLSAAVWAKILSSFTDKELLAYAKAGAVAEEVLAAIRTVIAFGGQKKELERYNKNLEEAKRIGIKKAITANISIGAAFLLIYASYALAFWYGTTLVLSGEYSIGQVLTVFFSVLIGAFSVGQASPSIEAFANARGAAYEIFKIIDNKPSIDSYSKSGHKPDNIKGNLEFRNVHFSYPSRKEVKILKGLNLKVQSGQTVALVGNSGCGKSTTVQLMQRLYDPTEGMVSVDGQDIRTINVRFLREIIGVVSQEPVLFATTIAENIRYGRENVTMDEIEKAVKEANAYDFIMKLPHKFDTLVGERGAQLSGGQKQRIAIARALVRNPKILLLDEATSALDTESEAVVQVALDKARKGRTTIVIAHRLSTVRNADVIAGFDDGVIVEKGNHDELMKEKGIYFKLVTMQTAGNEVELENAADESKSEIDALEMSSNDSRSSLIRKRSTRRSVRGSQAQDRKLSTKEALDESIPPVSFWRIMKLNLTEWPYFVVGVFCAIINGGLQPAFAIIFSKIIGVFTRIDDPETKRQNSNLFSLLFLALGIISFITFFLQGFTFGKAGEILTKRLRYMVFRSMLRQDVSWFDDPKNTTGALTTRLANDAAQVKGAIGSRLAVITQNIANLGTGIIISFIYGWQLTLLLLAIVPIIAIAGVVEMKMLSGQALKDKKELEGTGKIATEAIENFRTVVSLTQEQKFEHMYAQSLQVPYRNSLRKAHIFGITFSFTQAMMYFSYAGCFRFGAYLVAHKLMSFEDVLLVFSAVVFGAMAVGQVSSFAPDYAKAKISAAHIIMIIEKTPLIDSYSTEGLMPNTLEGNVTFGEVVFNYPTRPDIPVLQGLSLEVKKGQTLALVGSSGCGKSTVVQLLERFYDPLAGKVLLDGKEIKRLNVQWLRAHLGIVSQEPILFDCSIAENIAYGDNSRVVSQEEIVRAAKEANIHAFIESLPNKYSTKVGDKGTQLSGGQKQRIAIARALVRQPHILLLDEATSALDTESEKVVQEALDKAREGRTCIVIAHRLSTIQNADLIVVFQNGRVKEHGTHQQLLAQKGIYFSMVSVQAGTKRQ
Description: as §1, §2

[6] = biological target: T3, human P-gp with 1236T-2677A-3435T genotype
Description: as §1, §2

Flp-In™-293 cells = experiment: Cytotoxicity assay (MTT); assay type: cell-based, human; conditions: methadone 0.5 to 40 µM; 48 hours
Description: Briefly, the cells were seeded into 24-well plates and cultured overnight. […] After incubation, the medium was removed and added fresh culture medium 200 µl containing 0.5 mg/ml MTT and then incubated at 37°C for 4 hours. After incubation, the medium was removed and 200 µl DMSO was added, and incubation for 30 minutes at room temperature. After incubation, 100 µl of solution was transferred to a 96-well plate and absorbance was measured using an ELISA plate reader (Molecular Devices, Sunnyvale, USA) at 570 nm with a reference wavelength of 650 nm.

[7] = biological target: T3, human P-gp with 1236T-2677A-3435T genotype; experiment: cell-based
Description: as §1, §2

[8] = cited from earlier work
[9] = biological target: T2, human P-gp with 1236T-2677T-3435T genotype; experiment: cell-based
Description: as §1, §2

[10] = biological target: T1, human wild-type P-gp (ABCB1 1236C-2677G-3435C); experiment: cell-based
Description: as §1, §2

T2 sequence (P08183 whole entry): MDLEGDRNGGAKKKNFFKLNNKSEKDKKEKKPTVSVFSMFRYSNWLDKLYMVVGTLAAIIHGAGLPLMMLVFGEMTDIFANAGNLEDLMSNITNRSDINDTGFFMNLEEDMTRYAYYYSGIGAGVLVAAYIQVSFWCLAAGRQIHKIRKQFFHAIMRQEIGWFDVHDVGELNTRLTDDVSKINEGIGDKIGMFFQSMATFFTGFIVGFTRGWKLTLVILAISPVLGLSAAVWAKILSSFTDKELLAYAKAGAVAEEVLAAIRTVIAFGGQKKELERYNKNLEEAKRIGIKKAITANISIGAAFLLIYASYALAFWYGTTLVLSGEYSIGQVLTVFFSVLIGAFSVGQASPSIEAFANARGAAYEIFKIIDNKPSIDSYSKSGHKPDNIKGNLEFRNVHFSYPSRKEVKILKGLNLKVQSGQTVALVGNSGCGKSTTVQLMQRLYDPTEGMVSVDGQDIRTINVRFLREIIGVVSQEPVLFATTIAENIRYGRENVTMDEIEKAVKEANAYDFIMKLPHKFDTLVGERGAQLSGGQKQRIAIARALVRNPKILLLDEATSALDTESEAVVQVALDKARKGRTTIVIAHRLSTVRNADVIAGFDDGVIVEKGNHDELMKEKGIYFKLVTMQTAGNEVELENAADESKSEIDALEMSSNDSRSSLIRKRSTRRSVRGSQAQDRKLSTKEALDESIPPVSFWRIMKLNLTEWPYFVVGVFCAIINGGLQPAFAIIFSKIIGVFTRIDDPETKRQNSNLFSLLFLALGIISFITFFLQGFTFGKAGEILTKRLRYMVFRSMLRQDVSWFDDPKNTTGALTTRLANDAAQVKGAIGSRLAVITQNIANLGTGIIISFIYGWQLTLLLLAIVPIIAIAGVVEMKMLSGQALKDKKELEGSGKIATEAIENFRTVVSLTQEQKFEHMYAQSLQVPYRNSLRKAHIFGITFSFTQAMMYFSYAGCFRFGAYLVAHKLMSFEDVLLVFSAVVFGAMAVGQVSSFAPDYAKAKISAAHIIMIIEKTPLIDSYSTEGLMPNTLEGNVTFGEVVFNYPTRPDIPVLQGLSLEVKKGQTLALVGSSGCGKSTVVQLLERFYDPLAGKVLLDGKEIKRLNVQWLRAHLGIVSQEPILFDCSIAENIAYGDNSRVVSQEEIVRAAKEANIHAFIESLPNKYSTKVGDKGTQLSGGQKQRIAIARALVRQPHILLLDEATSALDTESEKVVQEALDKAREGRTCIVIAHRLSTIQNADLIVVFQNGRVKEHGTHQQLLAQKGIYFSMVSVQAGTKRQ
T1 sequence (P08183 whole entry S893A): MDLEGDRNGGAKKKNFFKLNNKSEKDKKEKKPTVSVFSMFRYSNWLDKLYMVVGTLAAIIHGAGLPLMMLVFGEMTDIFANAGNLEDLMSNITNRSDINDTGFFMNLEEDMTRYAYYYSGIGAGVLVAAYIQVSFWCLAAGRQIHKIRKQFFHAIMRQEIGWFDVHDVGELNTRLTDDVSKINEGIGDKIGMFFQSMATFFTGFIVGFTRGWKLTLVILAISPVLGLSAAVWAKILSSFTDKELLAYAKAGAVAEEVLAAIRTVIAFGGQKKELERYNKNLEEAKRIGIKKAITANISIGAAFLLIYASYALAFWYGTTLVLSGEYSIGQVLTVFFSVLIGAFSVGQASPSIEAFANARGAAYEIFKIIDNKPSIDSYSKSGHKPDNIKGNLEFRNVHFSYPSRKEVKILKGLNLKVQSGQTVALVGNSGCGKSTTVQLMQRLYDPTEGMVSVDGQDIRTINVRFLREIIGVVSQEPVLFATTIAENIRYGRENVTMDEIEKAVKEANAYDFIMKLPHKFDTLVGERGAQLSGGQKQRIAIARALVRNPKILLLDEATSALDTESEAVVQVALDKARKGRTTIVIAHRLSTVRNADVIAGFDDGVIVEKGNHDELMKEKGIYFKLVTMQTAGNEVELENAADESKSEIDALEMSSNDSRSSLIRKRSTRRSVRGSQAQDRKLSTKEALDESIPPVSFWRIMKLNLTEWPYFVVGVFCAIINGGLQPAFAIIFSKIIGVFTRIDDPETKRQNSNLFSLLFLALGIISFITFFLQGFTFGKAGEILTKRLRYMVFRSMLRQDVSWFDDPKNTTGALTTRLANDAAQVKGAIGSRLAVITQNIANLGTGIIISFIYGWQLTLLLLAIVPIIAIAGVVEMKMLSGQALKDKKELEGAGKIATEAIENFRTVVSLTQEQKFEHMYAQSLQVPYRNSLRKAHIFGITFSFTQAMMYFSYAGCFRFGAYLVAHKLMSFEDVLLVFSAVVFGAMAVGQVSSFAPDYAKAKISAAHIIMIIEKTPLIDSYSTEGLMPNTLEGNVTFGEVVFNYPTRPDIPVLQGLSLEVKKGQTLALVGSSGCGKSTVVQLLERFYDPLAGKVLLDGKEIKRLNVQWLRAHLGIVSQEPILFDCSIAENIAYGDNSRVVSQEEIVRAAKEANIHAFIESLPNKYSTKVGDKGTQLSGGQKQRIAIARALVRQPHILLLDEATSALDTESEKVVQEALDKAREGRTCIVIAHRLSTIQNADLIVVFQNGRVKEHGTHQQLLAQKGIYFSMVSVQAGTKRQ

SMILES	non-specific first-order rate constant of rhodamine 123 efflux [1]	non-specific transport as share of the total efflux [1]	Km at 10 min [2]	Vmax of rhodamine 123 efflux [3]	Km at 10 min [4]	Km at 10 min [5]	Vmax of rhodamine 123 efflux [6]	cell viability (MTT assay) (Flp-In™-293 cells)	IC50 [7]	Ki [7]	therapeutic range [8]	IC50 [9]	Ki [9]	IC50 [10]	Ki [10]
COC(=O)c1ccccc1-c1c2ccc(=N)cc-2oc2cc(N)ccc12 [Rhodamine 123]	12.08±1.23 µL/mg protein/10 min	2.9%	16.6 ± 3.01 µM	8.29±0.89 nmole/mg protein/10 min	18.8 ± 2 µM	14.8 ± 1.72 µM	7.34±0.63 nmole/mg protein/10 min								
CCC(=O)C(CC(C)N(C)C)(c1ccccc1)c1ccccc1 (stereo not drawn) [methadone]								did not affect	4.43 ± 1.1 µM	4.53 ± 1.17 µM	1 to 3 µM	2.97 ± 0.09 µM	3.92 ± 0.07 µM	2.17 ± 0.1 µM	2.77 ± 0.15 µM
